# Activity calls are given as the source filed them. The calls are words filed in the database; no cut-off is given here. Where a SMILES comes first, the peptide text is derived from it.
# How the values were obtained:
# [1] = target: VEGA-NRP1 (Homo sapiens, UniProt O14786); test: Inhibition of human biotinylated-VEGFA165 binding to recombinant human NRP-1 measured after 2 hrs by chemiluminescent based ELISA; format: protein assay
# [2] = species: Homo sapiens; test: Selectivity ratio of IC50 for inhibition of human biotinylated-VEGFA165 binding to recombinant human NRP-1 to IC50 for inhibition of human biotinylated-VEGFA165 binding to recombinant human NRP-2
# [3] = target: T1, NRP2-VEGA (Homo sapiens, UniProt O60462+P15692); test: Inhibition of human biotinylated-VEGFA165 binding to recombinant human NRP-2 measured after 2 hrs by chemiluminescent based ELISA; format: protein-complex assay
# T1 sequence (P15692 whole entry): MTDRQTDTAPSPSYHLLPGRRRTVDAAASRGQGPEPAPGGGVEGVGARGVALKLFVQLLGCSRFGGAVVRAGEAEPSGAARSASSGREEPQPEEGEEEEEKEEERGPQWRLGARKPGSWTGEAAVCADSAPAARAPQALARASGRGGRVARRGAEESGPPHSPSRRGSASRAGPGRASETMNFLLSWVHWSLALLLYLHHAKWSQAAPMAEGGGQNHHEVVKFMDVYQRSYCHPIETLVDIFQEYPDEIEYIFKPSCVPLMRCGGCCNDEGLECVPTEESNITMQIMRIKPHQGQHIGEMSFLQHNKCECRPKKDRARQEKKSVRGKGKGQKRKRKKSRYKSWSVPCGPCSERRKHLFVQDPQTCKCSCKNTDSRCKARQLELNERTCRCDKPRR
# T1 sequence (O60462 whole entry): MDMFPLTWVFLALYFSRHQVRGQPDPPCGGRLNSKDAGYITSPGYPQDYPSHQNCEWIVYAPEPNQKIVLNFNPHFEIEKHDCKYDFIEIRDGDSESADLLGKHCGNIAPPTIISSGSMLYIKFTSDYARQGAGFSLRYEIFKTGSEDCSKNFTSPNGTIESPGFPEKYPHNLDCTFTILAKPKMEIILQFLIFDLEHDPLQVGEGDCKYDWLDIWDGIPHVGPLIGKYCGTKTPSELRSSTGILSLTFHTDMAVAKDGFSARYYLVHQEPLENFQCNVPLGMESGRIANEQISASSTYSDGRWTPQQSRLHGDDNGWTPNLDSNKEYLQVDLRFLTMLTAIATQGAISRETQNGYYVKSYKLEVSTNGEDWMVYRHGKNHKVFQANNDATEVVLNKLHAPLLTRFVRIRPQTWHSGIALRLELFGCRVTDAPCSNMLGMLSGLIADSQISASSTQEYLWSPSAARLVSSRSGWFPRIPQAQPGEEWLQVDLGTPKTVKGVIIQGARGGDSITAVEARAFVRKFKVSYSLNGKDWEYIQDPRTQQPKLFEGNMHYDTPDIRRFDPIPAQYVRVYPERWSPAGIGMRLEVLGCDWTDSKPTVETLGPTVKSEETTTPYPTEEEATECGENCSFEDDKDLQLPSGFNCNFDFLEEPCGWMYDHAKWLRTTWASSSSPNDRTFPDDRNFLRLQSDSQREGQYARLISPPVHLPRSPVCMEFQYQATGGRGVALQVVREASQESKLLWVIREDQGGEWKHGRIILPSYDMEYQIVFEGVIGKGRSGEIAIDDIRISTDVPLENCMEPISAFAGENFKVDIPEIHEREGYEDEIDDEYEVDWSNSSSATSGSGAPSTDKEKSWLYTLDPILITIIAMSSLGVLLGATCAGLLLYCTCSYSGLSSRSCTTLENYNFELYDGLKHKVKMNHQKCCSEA
# [4] = target: VEGFR1-VEGA (Homo sapiens) (UniProt P15692+P17948); test: Inhibition of human biotinylated-VEGFA165 binding to recombinant human VEGFR1 measured after 2 hrs by chemiluminescent based ELISA; format: protein-complex assay
# [5] = target: VEGFR2-VEGA (Homo sapiens) (UniProt P15692+P35968); test: Inhibition of human biotinylated-VEGFA165 binding to recombinant human VEGFR2 measured after 2 hrs by chemiluminescent based ELISA; format: protein-complex assay
# [6] = Stability in human serum assessed as compound degradation measured upto 96 hrs by LC-SWATH-MS analysis; format: ADME, cell-free
# [7] = Stability in human serum assessed as parent compound remaining measured after 12 hrs by LC-SWATH-MS analysis; format: ADME, cell-free; settings: read-out: Stability
# [8] = system: MDA-MB-231; test: Increase in NRP-1 expression in human MDA-MB-231 cell membrane at 72 uM preincubated for 15 mins at 4 degC followed by compound washout and further incubated for 5 mins with subsequent addition of compound at 37 degC by FITC-streptavidin staining based flow cytometry analysis; format: functional; settings: time 20.0 min
# [9] = system: MDA-MB-231; test: Increase in NRP-1 expression in human MDA-MB-231 cell membrane at 72 uM preincubated for 15 mins at 4 degC followed by compound washout and further incubated for 60 mins with subsequent addition of compound at 37 degC by FITC-streptavidin staining based flow cytometry analysis; format: functional; settings: time 75.0 min
# [10] = system: MDA-MB-231; test: Increase in NRP-1 expression in human MDA-MB-231 cell membrane at 7.2 uM preincubated for 15 mins at 4 degC followed by compound washout and further incubated for 60 mins with subsequent addition of compound at 37 degC by FITC-streptavidin staining based flow cytometry analysis; format: functional; settings: time 75.0 min
# [11] = Half-life in human serum by LC-SWATH-MS analysis; format: ADME, cell-free
# [12] = Stability in human serum assessed as parent compound remaining measured after 8 hrs by LC-SWATH-MS analysis; format: ADME, cell-free; settings: read-out: Stability
# [13] = Stability in human serum assessed as parent compound remaining measured after 24 hrs by LC-SWATH-MS analysis; format: ADME, cell-free; settings: read-out: Stability
# Sequence of VEGA-NRP1 (O14786 whole entry, one chain of several): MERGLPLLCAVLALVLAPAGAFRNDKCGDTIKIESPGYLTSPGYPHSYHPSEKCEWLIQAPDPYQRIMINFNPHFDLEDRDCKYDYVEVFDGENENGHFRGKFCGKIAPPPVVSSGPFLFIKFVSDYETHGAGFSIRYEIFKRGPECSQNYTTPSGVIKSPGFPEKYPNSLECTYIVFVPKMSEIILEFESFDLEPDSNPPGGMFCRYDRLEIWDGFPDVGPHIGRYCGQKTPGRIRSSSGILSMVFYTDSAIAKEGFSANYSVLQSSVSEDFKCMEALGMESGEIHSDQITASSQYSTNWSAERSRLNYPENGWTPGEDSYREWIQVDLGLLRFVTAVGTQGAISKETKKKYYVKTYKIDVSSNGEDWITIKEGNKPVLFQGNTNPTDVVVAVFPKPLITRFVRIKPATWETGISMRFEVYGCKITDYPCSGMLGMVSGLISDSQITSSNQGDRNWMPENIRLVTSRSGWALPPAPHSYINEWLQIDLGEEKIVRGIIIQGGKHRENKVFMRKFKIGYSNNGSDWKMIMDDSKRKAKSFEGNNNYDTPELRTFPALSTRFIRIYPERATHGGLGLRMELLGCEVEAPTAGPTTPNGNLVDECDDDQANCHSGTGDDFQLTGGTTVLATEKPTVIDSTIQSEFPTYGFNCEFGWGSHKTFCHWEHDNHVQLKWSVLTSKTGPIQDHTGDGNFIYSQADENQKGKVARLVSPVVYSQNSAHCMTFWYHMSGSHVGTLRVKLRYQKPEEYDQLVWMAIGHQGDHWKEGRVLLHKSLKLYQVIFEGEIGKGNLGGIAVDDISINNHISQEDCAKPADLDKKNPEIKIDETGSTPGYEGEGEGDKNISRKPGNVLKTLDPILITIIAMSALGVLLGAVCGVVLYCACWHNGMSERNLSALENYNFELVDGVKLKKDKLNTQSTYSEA
IC50 ([1]; read-out: IC50) [nM],IC50 ([1]; read-out: pIC50 (converted)) [nM],Ratio IC50 [2],IC50 ([3]; read-out: IC50) [nM],IC50 ([3]; read-out: pIC50 (converted)) [nM],inhibition [4],inhibition [5],Stability [6],remaining at 12 h [7] [%],half-life [11] [h],remaining at 8 h [12] [%],remaining at 24 h [13] [%],SMILES,Activity [8],Activity [9],Activity [10]
39,43.1,5,43,475,inactive,inactive,Unstable,61,~8,–,–,"N=C(N)NCCCC[C@H](N)C(=O)NCCCC[C@H](NC(=O)[C@@H](N)CS)C(=O)N[C@@H](CCN)C(=O)N1C2CCCCC2C[C@H]1C(=O)N[C@@H](CCCNC(=N)N)C(=O)O (some centres not stated) (HELM PEPTIDE1{C.K.[Dab].[O=C([C@@H]1CC2CCCCC2N1[*:1])[*:2]].R}|PEPTIDE2{[N=C(N)NCCCC[C@H](N)C(=O)[*:2]]}$PEPTIDE1,PEPTIDE2,2:R3-1:R2$$$V2.0)",Active,Active,Active
46,–,5,9,–,inactive,inactive,Unstable,–,< 8,47,–,"N=C(N)NCCCC[C@H](NC(=O)[C@@H](N)CS)C(=O)NCCCC[C@H](N)C(=O)N[C@@H](CCN)C(=O)N1C2CCCCC2C[C@H]1C(=O)N[C@@H](CCCNC(=N)N)C(=O)O (some centres not stated) (HELM PEPTIDE1{K.[Dab].[O=C([C@@H]1CC2CCCCC2N1[*:1])[*:2]].R}|PEPTIDE2{C.[N=C(N)NCCCC[C@H](N[*:1])C(=O)[*:2]]}$PEPTIDE1,PEPTIDE2,1:R3-2:R2$$$V2.0)",Active,Active,Active
–,2240,–,–,–,–,–,–,–,–,56,0,"N=C(N)NCCCC[C@H](N)C(=O)NCC[C@H](N)C(=O)N[C@@H](CCN)C(=O)N1C2CCCCC2C[C@H]1C(=O)N[C@@H](CCCNC(=N)N)C(=O)O (some centres not stated) (HELM PEPTIDE1{[Dab].[Dab].[O=C([C@@H]1CC2CCCCC2N1[*:1])[*:2]].R}|PEPTIDE2{[N=C(N)NCCCC[C@H](N)C(=O)[*:2]]}$PEPTIDE1,PEPTIDE2,1:R3-1:R2$$$V2.0)",–,–,–

# Source: ChEMBL document CHEMBL5365540, “Structure-activity relationship studies and biological properties evaluation of peptidic NRP-1 ligands: Investigation of N-terminal cysteine importance” (Bioorg Med Chem, 2023)
